Biological target: T1, human PAD4 (Homo sapiens, UniProt Q9UM07)
T1 construct: human PAD4 (NM_012387), A2P663, was PCR amplified; His-SUMO (N, cleaved yes); made in house; host or cells: E. coli BL21(DE3)
Assay: In vitro PAD4 BAEE biochemical assay
Details: human PAD4, BAEE substrate; 5 nM PAD4, 2 mM calcium chloride, 3 mM BAEE; geometric mean of multiple experiments
In short: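 Ammonia generated from BAEE serves as the readout, measured by o-phthalaldehyde after EDTA termination. Final conditions: 5 nM human PAD4 (SUMO tag cleaved), 2 mM CaCl2, 3 mM BAEE, pH 7.6 MOPS buffer, 25 °C for 2 h following a 30-min compound preincubation.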

T1 sequence (Q9UM07 2-663): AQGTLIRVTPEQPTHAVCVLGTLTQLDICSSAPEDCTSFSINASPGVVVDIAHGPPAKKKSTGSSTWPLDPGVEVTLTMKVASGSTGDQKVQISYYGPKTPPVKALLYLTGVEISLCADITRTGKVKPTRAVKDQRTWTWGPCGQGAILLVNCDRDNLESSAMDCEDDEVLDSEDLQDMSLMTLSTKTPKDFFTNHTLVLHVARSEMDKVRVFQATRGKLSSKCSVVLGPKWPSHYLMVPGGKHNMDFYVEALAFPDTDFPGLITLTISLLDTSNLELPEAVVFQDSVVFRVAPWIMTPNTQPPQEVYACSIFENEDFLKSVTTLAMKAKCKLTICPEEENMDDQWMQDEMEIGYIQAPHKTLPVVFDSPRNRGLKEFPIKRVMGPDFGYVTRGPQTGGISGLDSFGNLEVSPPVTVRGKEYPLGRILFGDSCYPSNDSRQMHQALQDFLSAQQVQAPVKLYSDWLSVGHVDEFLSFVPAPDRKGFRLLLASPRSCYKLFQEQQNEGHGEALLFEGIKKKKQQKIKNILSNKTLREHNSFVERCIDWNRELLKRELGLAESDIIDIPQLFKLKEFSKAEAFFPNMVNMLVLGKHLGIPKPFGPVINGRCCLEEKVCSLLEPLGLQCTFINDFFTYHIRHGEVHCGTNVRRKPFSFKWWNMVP

| IC50 [µM] | Structure (SMILES) |
| --- | --- |
| 6.37 | Cc1c(-c2cc3ccc(N(C(F)F)S(C)(=O)=O)nc3n2CC2CC2)nc2cc(C(=O)N3CCC[C@@H](N)C3)cc(N(C)C)n12 [Example 422, ~{N}-[2-[7-[(3~{R})-3-aminopiperidine-1-carbonyl]-5-(dimethylamino)-3-methylimidazo[1,2-a]pyridin-2-yl]-1-(cyclopropylmethyl)pyrrolo [2,3-b]pyridin-6-yl]-~{N}-(difluoromethyl) methanesulfonamide] |
| 9 | CCc1ccc2cc(-c3nc4cc(C(=O)N5CCC6(CC6)[C@@H](N)C5)cc(OC)n4c3C)n(CC3CC3)c2n1 [Example 592, [(8~{R})-8-amino-6-azaspiro[2.5]octan-6-yl]-[2-[1-(cyclopropylmethyl)-6-ethylpyrrolo[2,3-b]pyridin-2-yl]-5-methoxy-3-methylimidazo[1,2-a]pyridin-7-yl]methanone] |
| 0.159 | CC[C@](C)(O)c1ccc2cc(-c3nc4cc(C(=O)N5[C@H]6CC[C@@H]5[C@H](N)C6)cc(OC)n4c3C)n(CC3CC3)c2n1 [Example 565, [(1~{R},2~{R},4~{S})-2-amino-7-azabicyclo [2.2.1]heptan-7-yl]-[2-[1-(cyclopropylmethyl)-6-[(2~{S})-2-hydroxybutan-2-yl]pyrrolo[2,3-b]pyridin-2-yl]-5-methoxy-3-methylimidazo[1,2-a]pyridin-7-yl]methanone] |
| 0.0307 | CCn1cc(C(=O)N[C@H](C)c2ccc3cc(-c4nc5cc(C(=O)N6[C@H]7CC[C@@H]6[C@H](N)C7)cc(OC)n5c4C)n(CC4CC4)c3n2)cn1 [Example 77, ~{N}-[(1~{R})-1-[2-[7-[(1~{R},2~{R},4~{S})-2-amino-7-azabicyclo[2.2.1]heptane-7-carbonyl]-5-methoxy-3-methylimidazo [1,2-a]pyridin-2-yl]-1-(cyclopropylmethyl)pyrrolo [2,3-b]pyridin-6-yl]ethyl]-1-ethylpyrazole-4-carboxamide] |
| 0.0287 | COc1cc(C(=O)N2[C@H]3CC[C@@H]2[C@H](N)C3)cc2nc(-c3cc4ccc([C@@H](C)NC(=O)C5CC(F)(F)C5)nc4n3CC3CC3)c(C)n12 [Example 85, ~{N}-[(1~{R})-1-[2-[7-[(1~{R},2~{R},4~{S})-2-amino-7-azabicyclo[2.2.1]heptane-7-carbonyl]-5-methoxy-3-methylimidazo [1,2-a]pyridin-2-yl]-1-(cyclopropylmethyl)pyrrolo [2,3-b]pyridin-6-yl]ethyl]-3,3-difluorocyclobutane-1-carboxamide] |
| 0.0887 | COc1cc(C(=O)N2[C@H]3CC[C@@H]2[C@H](N)C3)cc2nc(-c3cc4ccc([C@@H](C)NC(=O)c5ccccc5)nc4n3CC3CC3)c(C)n12 [Example 176] |
| 0.108 | COc1cc(C(=O)N2[C@H]3CC[C@@H]2[C@H](N)C3)cc2nc(-c3cc4ccc([C@@H](C)NC(=O)NC5COC5)nc4n3CC3CC3)c(C)n12 [Example 229, 1-[(1~{R})-1-[2-[7-[(1~{R},2~{R},4~{S})-2-amino-7-azabicyclo[2.2.1]heptane-7-carbonyl]-5-methoxy-3-methylimidazo [1,2-a]pyridin-2-yl]-1-(cyclopropylmethyl)pyrrolo [2,3-b]pyridin-6-yl]ethyl]-3-(oxetan-3-yl)urea] |
| 0.203 | Cc1c(-c2cc3ccc(N(C(F)F)S(C)(=O)=O)nc3n2CC2CC2)nc2cc(C(=O)N3C[C@H](N)CC[C@@H]3C)ccn12 [Example 402, ~{N}-[2-[7-[(2~{S},5~{R})-5-amino-2-methylpiperidine-1-carbonyl]-3-methylimidazo[1,2-a]pyridin-2-yl]-1-(cyclopropylmethyl)pyrrolo [2,3-b]pyridin-6-yl]-~{N}-(difluoromethyl) methanesulfonamide] |
| 0.132 | CCc1ccc2cc(-c3nc4cc(C(=O)N5[C@H]6CC[C@@H]5[C@H](N)C6)cc(OC)n4c3C)n(CC(F)(F)F)c2n1 [Example 504, [(1~{R},2~{R},4~{S})-2-amino-7-azabicyclo [2.2.1]heptan-7-yl]-[2-[6-ethyl-1-(2,2,2-trifluoroethyl)pyrrolo[2,3-b]pyridin-2-yl]-5-methoxy-3-methylimidazo[1,2-a]pyridin-7-yl]methanone] |
| 0.383 | COc1cc(C(=O)N2[C@H]3CC[C@@H]2[C@H](N)[C@H](O)C3)cc2nc(-c3cc4ccc(N(C(F)F)S(C)(=O)=O)nc4n3CC3CC3)c(C)n12 [Example 311, ~{N}-[2-[7-[(1~{R}, 2~{S},3~{R},5~{S})-2-amino-3-hydroxy-8-azabicyclo[3.2.1]octane-8-carbonyl]-5-methoxy-3-methylimidazo [1,2-a]pyridin-2-yl]-1-(cyclopropylmethyl)pyrrolo [2,3-b]pyridin-6-yl]-~{N}-(difluoromethyl) methanesulfonamide] |
| 0.757 | CCc1ccc2cc(-c3nc4cc(C(=O)N5CCC[C@@H](N)C5)cc(OC)n4c3N)n(CC3CC3)c2n1 [Example 553, [3-amino-2-[1-(cyclopropylmethyl)-6-ethylpyrrolo[2,3-b]pyridin-2-yl]-5-methoxyimidazo [1,2-a]pyridin-7-yl]-[(3~{R})-3-aminopiperidin-1-yl]methanone] |
| 0.418 | COc1cc(C(=O)N2C[C@H](N)CC[C@@H]2C)cc2nc(-c3cc4ccc(N(C(F)F)S(C)(=O)=O)nc4n3CC34CC(C3)C4)c(C)n12 [Example 496, ~{N}-[2-[7-[(2~{S}, 5~{R})-5-amino-2-methylpiperidine-1-carbonyl]-5-methoxy-3-methylimidazo[1,2-a]pyridin-2-yl]-1-(1-bicyclo [1.1.1]pentanylmethyl)pyrrolo [2,3-b]pyridin-6-yl]-~{N}-(difluoromethyl) methanesulfonamide] |
| 0.655 | CCc1ccc2cc(-c3nc4cc(C(=O)N5[C@H]6CC[C@@H]5[C@H](N)C6)cc(OC)n4c3C)n(CC3CCCC3)c2n1 [Example 509, [(1~{R},2~{R},4~{S})-2-amino-7-azabicyclo [2.2.1]heptan-7-yl]-[2-[1-(cyclopentylmethyl)-6-ethylpyrrolo[2,3-b]pyridin-2-yl]-5-methoxy-3-methylimidazo[1,2-a]pyridin-7-yl]methanone] |
| 0.302 | CCc1ccc2cc(-c3nc4cc(C(=O)N5CCC[C@@H](N)C5)cc(OC)n4c3C)n(CC3CC3)c2n1 [Example 613, [(3~{R})-3-aminopiperidin-1-yl]-[2-[1-(cyclopropylmethyl)-6-ethylpyrrolo[2,3-b]pyridin-2-yl]-5-methoxy-3-methylimidazo [1,2-a]pyridin-7-yl] methanone] |
| 0.056 | COc1cc(C(=O)N2[C@H]3CC[C@@H]2[C@H](N)C3)cc2nc(-c3cc4ccc([C@@H](C)NC(=O)c5cocn5)nc4n3CC3CC3)c(C)n12 [Example 105, ~{N}-[(1~{R})-1-[2-[7-[(1~{R},2~{R},4~{S})-2-amino-7-azabicyclo[2.2.1]heptane-7-carbonyl]-5-methoxy-3-methylimidazo [1,2-a]pyridin-2-yl]-1-(cyclopropylmethyl)pyrrolo [2,3-b]pyridin-6-yl]ethyl]-1,3-oxazole-4-carboxamide] |
| 0.0831 | COc1cc(C(=O)N2[C@H]3CC[C@@H]2[C@H](N)C3)cc2nc(-c3cc4ccc([C@@H](C)N5CCNC5=O)nc4n3CC3CC3)c(C)n12 [Example 273, 1-[(1~{R})-1-[2-[7-[(1~{R},2~{R},4~{S})-2-amino-7-azabicyclo[2.2.1]heptane-7-carbonyl]-5-methoxy-3-methylimidazo [1,2-a]pyridin-2-yl]-1-(cyclopropylmethyl)pyrrolo [2,3-b]pyridin-6-yl]ethyl] imidazolidin-2-one] |
